Here are results for 3 molecules from EP4592286A1, “MACROCYCLIC NITROGEN-CONTAINING CROWN ETHER COMPOUND AND USE THEREOF AS PROTEIN KINASE INHIBITOR” (Artivila Biopharma, priority 2022, dated 2024).

One data set has as its target T1, wild-type LRRK2 (Homo sapiens, UniProt Q5S007).
T1 construct: pCMV-flag-WT LRRK2 (full-length); expressed in transfected cells; host or cells: HEK293T
The experiment in a line: detection of phosphorylated S935 in HEK293T overexpressing wild-type LRRK2. As to conditions: pS935, HEK293T overexpressing wild-type LRRK2, 1.5 hours. It is filed as cell-based. As for the experimental part:
Detection of phosphorylated S935 in HEK293T Overexpressing full-length LRRK2 (G2019S) or wild-type LRRK2
HEK293T cells was inoculated into a 6-well plate and cultured overnight. The next day, they were transiently transfected with plasmid pcDNA5-FRT/TO-FLAG LRRK2 (G2019S, full-length) or pCMV-flag-WT LRRK2 (full-length) by using Superfect transfection reagent and cultured at 37°C and 5% CO2 for 20-24 hours. The next day, cells were collected, resuspended at a density of 0.48×10^6 cells/ml, and inoculated into a 384-well plate at 50 microliters/well. Compound or DMSO solutions (volume ratio of 0.5%) were added by Tecan, and cultured at 37°C and 5% CO2 for 1.5 hours. After 1.5 hours, the supernatant was discarded, 50 microliters of 8% PFA were added in each well to fix the cells, and the cells were incubated at room temperature for 1 hour. The plate was washed with EL406 plate washer for three times, with 115 microliters of PBST per well, and the culture plate was patted to dryness. The cells were blocked with 50 microliters/well of Licor Odyssey blocking solution (0.1% Tween 20) at room temperature for 1.5 hours. The blocking solution was discarded and the culture plate was patted to dryness. 20 microliters of primary antibody (1:1000(pS935), diluted with Licor Odyssey buffer (0.1% Tween20)) was added into each well, and incubated at 4 °C overnight. The next day, the first antibody was discarded and washing was performed with PBST for five times. 20 microliters of secondary antibody (diluted with Licor Odyssey buffer (0.1% Tween20) at 1:500 and stained with DNA at 1:2000) were added into each well, and incubated at room temperature for 1 hour. The second antibody was discarded, and washing was performed for three times with PBST. The fluorescence intensity was measured by LICOR Odyssey imager Scanner, and the data was analyzed.

Data set [1] deals with T2, LRRK2 (Homo sapiens, UniProt Q5S007). The experiment in a line: experiment of inhibiting kinase activity, LRRK2. Type of data set: biochemical. As to conditions: for IC50: kinase activity assay, Table 3. As for the experimental part: The inhibition rates of tested compounds on JAK1, JAK2, JAK3, TYK2, CDK7, CDK9, EGFR (T790M) and LRRK2 kinases were measured. The test concentrations of the compounds were 10 nM and 100 nM, and the detection was performed by replicate wells. Alternatively, compounds were 3-fold serial diluted from 10 µM for 10 concentrations in replicate wells.

Data set [2] has as its target T3, JAK1 (Homo sapiens, UniProt P23458). The experiment in a line: experiment of inhibiting kinase activity (Caliper mobility shift assay), JAK1. It is filed as biochemical. In short, it runs like this:
(§1)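 Compounds were tested at 10 nM and 100 nM, or as 10-point 3-fold dilutions from 10 µM, in replicate wells. Kinase was preincubated with compound for 10 min at room temperature before ATP/substrate addition. Substrate conversion was read by mobility shift, and IC50 was fitted by a variable-slope log(inhibitor) vs response model.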

Another data set deals with JAK2 (Homo sapiens, UniProt O60674). The experiment in a line: experiment of inhibiting kinase activity (Caliper mobility shift assay), JAK2. Type of data set: biochemical. The procedure, abridged: as §1
For data set [3], the target named is T3, JAK1. The data set is described as follows: JAKs cell activity test: detection of pSTAT6 in THP1 cells induced by JAK1_IL-4. The conditions noted are these: pSTAT6, IL-4-induced THP1 cells. Type of data set: cell-based. As for the experimental part:
Detection of pSTAT6 in THP1 cells induced by JAK1_IL-4
THP1 cells were collected by centrifugation, resuspended with 1×HBSS, counted and diluted to a certain cell density. They were inoculated in a 384-well plate and cultured in a saturated humidity incubator with 37 °C and 5% CO2. The compound (DMSO final volume of 0.3%) was added to THP1 cells (10 doses in duplicates) and cultured in a saturated humidity incubator with 37 °C and 5% CO2. hIL-4 was added to stimulate cells and cultured in a saturated humidity incubator with 37 °C and 5% CO2. The lysis solution was added and incubated at room temperature. According to the instructions of AlphaLISA SureFire Ultra p-STAT6 detection kit, the lysis solution was transferred to pSTAT6 detection system, and the ALPHA signal was read by PE Envision microplate reader. The inhibition rate Inh%=((DMSO-sample)/(DMSO-background))×100 was calculated. IC50 was obtained by fitting with GraphPad Prism non-linear regression equation, and y=Bottom+(Top-Bottom)/(1+10^((LogIC50-x)×hillslope)), where x was the concentration of the compound and y was the inhibition rate.

A short description of data set [4]: measurement of the solubility of compounds in water and diluted hydrochloric acid. It is filed as physicochemical. The conditions noted are these: thermodynamic from solid. Here is the method: Example 117: measurement of the solubility of compounds in water and diluted hydrochloric acid
The compounds were dissolved in acetonitrile (LCMS pure) and prepared into standard samples having the concentration gradient of 1000 µg/mL, 500 µg/mL, 250 µg/mL, 125 µg/mL, 62.5 µg/mL, and 31.25 µg/mL.
About 1.0 mg of the powder of the compound to be tested was weighed and added to 0.3 mL of ultrapure water (pH-6), the resulting mixture was shaked thoroughly at room temperature overnight and centrifuged, and the supernatant was taken and diluted 10 times with acetonitrile. The sample was analyzed after mixing evenly.
153.8 µL of 6 M HCl was pipetted, 20 mL of water was added, and mixed evenly to prepare diluted hydrochloric acid solution A (pH-1.5). About 1.0 mg of the powder of the compound to be tested was weighed and added to 0.3 mL of diluted hydrochloric acid solution A, the resulting mixture was shaked thoroughly at room temperature for 1 hour and centrifuged, and the supernatant was taken and diluted 10 times with acetonitrile. The sample was analyzed after mixing evenly.
The standard sample and the sample to be tested were analyzed by Shimadzu LCMS-2020, where chromatographic column was Skim-psck GIST 5 µm C18 2.1*[…]; mobile phase A was water and mobile phase B was methanol; and flow rate was 0.3 mL/min. The gradient of B was as the following: 0 min: 10%; 0-1.0 min: 10%; 1.0-2.5 min: 95%; 3.0-4.0 min: 95%; 4.0-4.1 min: 10%; 4.1-6.0 min: 10%.
The relationship between the concentration and peak area of the standard sample was ploted into a standard curve, and the concentration of the sample to be tested was calibrated using this standard curve. Compound solubility = concentration of the sample to be tested × 10 [formula]

The target in data set [5] is T4, endogenous phosphorylated LRRK2 (S935) (Homo sapiens, UniProt Q5S007).
T4 construct: Detection of endogenous phosphorylated LRRK2 (S935) in A549 cells; endogenous in cells; host or cells: A549
The experiment in a line: detection of endogenous phosphorylated LRRK2 (S935) in A549 cells (Western blot). It is filed as cell-based. The conditions noted are these: at 2 µM, LRRK2 (S935) activity in A549 cells, 15 hours; read-out: Inhibition rate. Here is the method:
Detection of endogenous phosphorylated LRRK2 (S935) in A549 cells
A549 cells were resuspended in serum-free 1640 medium at a density of 1×10^6 cells/ml, and inoculated into a 6-well plate at 1 ml/well, and cultured at 37°C and 5% CO2 for 6-8 hours. 1 microliter of compound solution in DMSO or DMSO (volume ratio of 0.1%) was added, mixed evenly, and cultivated at 37°C and 5% CO2 for 15 hours. Cells were collected, 50 microliters of RIPA III lysis solution were added to each sample to lyse cells on ice for 15 minutes, centrifuged at 4°C and 13000 rpm for 30 minutes, the supernatant was collected, the protein concentration of cell lysis solution was measured by BCA, and the protein concentrations of all samples were normalized. 5×sample loading buffer were added and kept at 95°C for 10 minutes. The content of phosphorylated S935 of endogenous LRRK2 was detected by Western blot, using antibody against phosphorylated LRRK2 (S935) (Abcam#133450). The signal intensity of phosphorylated LRRK2 (S935) was counted by Image J, the signal of phosphorylated LRRK2 (S935) in a sample was normalized by β-actin, and the data was analyzed.

Data set [6] concerns the target T2, LRRK2. The data set is described as follows: experiment of inhibiting LRRK2 kinase activity (ADP-Glo method). It is filed as biochemical. As to conditions: Table 4.

The structures appear in SMILES notation. Values after ≈ are worked out from the molar mass of the structure shown.

T3 sequence (P23458 whole entry): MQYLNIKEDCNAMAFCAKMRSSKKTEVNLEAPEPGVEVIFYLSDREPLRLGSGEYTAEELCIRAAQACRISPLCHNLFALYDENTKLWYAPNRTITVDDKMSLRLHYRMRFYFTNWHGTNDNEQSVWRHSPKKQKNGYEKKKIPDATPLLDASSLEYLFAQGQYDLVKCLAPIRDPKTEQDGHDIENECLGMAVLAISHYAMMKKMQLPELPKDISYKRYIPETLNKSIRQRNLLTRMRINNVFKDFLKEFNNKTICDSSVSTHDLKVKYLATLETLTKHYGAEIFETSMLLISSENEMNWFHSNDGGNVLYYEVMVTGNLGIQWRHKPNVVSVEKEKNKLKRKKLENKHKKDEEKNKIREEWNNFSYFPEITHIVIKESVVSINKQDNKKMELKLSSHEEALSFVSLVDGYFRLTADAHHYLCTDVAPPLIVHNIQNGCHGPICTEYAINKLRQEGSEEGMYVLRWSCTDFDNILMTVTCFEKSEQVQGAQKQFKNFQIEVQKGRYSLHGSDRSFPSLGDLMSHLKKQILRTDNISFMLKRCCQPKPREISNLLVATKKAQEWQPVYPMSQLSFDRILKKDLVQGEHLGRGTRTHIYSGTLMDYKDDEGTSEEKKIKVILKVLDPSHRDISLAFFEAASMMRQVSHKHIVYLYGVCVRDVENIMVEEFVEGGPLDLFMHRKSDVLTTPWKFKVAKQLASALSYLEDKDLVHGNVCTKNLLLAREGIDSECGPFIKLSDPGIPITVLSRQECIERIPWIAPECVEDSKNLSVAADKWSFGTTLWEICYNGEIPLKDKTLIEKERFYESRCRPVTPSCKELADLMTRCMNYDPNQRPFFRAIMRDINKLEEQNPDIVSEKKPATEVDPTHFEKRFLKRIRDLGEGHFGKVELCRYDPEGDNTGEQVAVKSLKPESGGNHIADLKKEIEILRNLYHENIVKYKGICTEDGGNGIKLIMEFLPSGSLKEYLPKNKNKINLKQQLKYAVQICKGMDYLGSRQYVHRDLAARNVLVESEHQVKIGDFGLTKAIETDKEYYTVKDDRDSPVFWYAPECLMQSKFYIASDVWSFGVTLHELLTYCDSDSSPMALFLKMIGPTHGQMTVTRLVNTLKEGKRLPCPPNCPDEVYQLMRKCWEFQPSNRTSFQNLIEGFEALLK
Chain of JAK2 (O60674 whole entry): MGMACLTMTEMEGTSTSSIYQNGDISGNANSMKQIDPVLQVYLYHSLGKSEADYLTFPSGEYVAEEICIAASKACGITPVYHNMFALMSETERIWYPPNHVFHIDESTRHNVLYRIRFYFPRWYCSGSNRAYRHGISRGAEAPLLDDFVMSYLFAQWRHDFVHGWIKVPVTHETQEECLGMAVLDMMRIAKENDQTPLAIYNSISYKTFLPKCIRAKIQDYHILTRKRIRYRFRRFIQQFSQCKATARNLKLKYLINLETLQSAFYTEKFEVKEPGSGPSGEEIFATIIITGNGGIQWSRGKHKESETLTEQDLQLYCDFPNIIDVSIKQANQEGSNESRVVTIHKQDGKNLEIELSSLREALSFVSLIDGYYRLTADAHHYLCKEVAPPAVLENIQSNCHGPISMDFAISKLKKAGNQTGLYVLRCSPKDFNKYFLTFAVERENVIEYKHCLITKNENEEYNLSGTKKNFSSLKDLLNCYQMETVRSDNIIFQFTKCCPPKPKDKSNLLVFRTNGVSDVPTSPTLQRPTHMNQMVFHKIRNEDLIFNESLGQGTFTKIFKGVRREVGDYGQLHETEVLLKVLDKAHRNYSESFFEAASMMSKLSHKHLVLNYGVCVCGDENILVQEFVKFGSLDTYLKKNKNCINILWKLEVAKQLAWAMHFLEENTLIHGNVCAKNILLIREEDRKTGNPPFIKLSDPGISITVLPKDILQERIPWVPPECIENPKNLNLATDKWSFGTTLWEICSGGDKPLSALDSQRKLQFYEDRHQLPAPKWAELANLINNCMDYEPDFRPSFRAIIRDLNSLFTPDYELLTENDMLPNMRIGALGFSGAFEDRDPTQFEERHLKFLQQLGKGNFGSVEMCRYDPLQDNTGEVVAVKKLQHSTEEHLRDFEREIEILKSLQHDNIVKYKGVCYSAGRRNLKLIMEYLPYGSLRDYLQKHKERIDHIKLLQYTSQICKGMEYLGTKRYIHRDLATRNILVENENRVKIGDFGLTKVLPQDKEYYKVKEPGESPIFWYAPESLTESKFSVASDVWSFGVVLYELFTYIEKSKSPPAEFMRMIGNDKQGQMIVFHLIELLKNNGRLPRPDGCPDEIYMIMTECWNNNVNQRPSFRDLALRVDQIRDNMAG
T2 sequence (Q5S007 whole entry): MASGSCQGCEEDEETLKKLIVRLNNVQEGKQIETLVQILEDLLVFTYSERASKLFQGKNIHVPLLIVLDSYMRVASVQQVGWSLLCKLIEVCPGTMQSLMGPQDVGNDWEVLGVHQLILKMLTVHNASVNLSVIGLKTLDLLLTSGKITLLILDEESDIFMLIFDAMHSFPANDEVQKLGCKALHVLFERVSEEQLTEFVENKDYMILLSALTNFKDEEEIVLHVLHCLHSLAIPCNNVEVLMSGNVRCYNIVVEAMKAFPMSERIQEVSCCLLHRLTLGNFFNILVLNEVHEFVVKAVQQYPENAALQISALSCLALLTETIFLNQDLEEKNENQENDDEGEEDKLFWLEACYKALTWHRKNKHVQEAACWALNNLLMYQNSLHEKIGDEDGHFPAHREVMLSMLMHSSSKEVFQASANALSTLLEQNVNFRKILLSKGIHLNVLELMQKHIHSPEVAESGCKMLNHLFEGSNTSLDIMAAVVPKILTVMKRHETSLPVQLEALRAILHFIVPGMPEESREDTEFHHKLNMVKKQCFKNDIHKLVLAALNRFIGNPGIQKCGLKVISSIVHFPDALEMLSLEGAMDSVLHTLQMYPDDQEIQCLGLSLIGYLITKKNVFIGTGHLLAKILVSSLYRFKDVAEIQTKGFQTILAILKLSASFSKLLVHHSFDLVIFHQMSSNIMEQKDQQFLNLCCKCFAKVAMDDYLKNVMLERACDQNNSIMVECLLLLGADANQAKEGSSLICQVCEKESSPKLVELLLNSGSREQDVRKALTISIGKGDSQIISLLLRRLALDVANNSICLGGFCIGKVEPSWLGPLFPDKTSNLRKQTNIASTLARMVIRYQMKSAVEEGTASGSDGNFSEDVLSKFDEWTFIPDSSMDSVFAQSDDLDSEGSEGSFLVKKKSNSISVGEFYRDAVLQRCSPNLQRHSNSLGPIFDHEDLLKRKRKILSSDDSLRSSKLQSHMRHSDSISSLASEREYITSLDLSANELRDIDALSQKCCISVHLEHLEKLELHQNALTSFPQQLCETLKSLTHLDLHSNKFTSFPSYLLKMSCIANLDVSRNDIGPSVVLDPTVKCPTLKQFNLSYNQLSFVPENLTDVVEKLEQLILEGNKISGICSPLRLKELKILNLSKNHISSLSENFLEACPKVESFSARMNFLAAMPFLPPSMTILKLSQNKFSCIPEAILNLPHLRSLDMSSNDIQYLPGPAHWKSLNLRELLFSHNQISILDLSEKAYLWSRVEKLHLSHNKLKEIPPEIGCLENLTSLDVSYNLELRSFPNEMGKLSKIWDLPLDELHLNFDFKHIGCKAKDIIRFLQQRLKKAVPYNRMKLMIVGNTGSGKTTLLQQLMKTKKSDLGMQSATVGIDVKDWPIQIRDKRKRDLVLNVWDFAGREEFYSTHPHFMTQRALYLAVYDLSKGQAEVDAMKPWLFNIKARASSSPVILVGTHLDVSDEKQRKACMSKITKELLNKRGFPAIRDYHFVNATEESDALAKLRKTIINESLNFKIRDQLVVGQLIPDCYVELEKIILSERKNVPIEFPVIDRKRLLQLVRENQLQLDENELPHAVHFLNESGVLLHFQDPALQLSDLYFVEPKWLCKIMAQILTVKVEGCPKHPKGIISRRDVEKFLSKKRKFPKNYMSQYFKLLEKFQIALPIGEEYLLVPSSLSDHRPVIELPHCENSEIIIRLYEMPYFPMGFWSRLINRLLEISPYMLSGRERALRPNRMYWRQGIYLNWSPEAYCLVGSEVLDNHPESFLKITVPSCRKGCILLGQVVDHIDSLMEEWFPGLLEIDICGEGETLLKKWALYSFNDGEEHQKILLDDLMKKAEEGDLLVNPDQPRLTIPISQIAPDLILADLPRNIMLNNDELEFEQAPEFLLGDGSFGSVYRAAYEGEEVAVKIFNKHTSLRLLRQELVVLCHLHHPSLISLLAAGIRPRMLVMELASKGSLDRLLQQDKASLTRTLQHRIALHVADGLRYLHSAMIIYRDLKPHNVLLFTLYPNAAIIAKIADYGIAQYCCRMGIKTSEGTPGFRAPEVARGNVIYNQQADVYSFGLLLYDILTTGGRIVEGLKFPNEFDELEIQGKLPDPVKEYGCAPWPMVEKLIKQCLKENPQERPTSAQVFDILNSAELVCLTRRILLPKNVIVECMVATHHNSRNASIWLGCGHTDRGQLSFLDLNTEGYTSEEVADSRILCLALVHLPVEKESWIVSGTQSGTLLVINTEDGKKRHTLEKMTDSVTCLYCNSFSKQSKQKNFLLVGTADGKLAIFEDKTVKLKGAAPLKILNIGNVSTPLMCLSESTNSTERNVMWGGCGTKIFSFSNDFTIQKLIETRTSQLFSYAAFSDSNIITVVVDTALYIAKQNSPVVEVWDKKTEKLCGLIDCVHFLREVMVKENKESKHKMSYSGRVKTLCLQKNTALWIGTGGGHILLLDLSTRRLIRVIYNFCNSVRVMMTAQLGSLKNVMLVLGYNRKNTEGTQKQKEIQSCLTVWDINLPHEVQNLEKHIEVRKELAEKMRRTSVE
T1 sequence (Q5S007 whole entry): as above
T4 sequence (Q5S007 whole entry): as above

In the case of `CN1CCOc2ccc(Nc3nc(NCCS(C)(=O)=O)c4cc[nH]c4n3)cc2OCC1` [Example 84, N^2-(4-methyl-3,4,5,6-tetrahydro-2H-benzo[b][1,4,7]dioxazolin-9-yl)-N^4-(2-(methylsulfonyl)ethyl)-7H-pyrrolo[2,3-d]pyrimidin-2,4-diamine], at wild-type LRRK2, the 50% effective concentration (EC50) fell in the range of 1000 to 5000 nM. Besides, the inhibition at 0.01 µM on LRRK2 [1] (at 10 nM, read-out: inhibition rate LRRK2) fell in the range of 40 to 79%. At LRRK2 [1], this molecule returned an IC50 of less than 50 nM.
On to `CN1CCOc2ccc(Nc3nc(-c4ccc(C(=O)NCC#N)cc4)c4cc[nH]c4n3)cc2OCC1` [Example 2, N-(cyanomethyl)-4-(2-((4-methyl-3,4,5,6-tetrahydro-2H-benzo[b][1,4,7]dioxazolin-9-yl)amino)-7H-pyrrolo[2,3-d]pyrimidin-4-yl)benzamide], for which the EC50 on wild-type LRRK2 was less than 500 nM; on JAK1 [3], less than 50 nM. Also, the inhibition at 0.1 µM at JAK1 [2] (at 100 nM, read-out: inhibition rate JAK1) is greater than 80%; on JAK2 (at 100 nM, read-out: inhibition rate JAK2), greater than 80%; at LRRK2 [1] (at 100 nM, read-out: inhibition rate LRRK2), greater than 80%. In addition, the IC50 was less than 50 nM on JAK1 [2] (kinase activity assay, Table 3); less than 50 nM at JAK2 (kinase activity assay, Table 3); less than 50 nM against LRRK2 [1]. The inhibition at 0.01 µM at JAK2 (at 10 nM, read-out: inhibition rate JAK2) lay within 40 to 79%.
Molecule `CN1CCOCCOc2ccc(Nc3ncc(C(F)(F)F)c(O[C@H]4CC[C@@](C)(O)CC4)n3)cc2OCC1` [Example 7, (1s,4s)-1-methyl-4-((2-((7-methyl-2,3,6,7,8,9-hexahydro-5H-benzo[b][1,4,7]trioxa[10]azacyclododecan-12-yl)amino)-5-(trifluoromethyl)pyrimidin-4-yl)oxy)cyclohexan-1-ol] showed a solubility at 1 h in data set [4] (simulated gastric fluid, diluted hydrochloric acid solution A (pH-1.5), room temperature, 1 hour) greater than 3770 µg/mL. In data set [4] (ultrapure water (pH-6), room temperature overnight), this molecule gave a solubility of 680 µg/mL (≈ 1290 µM). Besides, the inhibition at 2 µM in data set [5] was greater than 80%. Further, the half-maximal inhibitory concentration (IC50) on LRRK2 [6] was less than 100 nM.
